The values that follow come from article PMC13080230, “Zebrafish as a model for Catel–Manzke syndrome—identification and characterization of the zebrafish TGDS ortholog” (The Febs Journal, 2025).

For assay [1], the target named is T1, zebrafish Tgds (Danio rerio, UniProt A0AC58JQE1, Y223H).
T1 construct: full coding region (347 residues) from ovary cDNA, pET-28a NdeI/XhoI, N-terminal 6xHis tag (cutting not mentioned), E. coli BL21 DE
T1 sequence (A0AC58JQE1 1-347 Y223H): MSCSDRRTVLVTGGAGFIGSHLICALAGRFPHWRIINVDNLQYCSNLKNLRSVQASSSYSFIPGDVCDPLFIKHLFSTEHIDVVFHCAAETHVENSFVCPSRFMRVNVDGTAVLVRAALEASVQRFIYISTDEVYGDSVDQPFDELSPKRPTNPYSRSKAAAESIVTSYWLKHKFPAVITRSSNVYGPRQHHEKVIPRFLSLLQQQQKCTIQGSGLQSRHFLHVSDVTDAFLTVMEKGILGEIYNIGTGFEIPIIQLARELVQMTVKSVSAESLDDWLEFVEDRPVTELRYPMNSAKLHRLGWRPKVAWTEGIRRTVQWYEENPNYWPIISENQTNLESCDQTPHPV
The assay is described as follows: cycling assay of NAD+ tightly bound to the purified protein. The settings on record: co-purified, tightly bound cofactor; protein from calculated extinction coefficient at 280 nm. It is filed as binding. The text has this:
(§1) cycling assay of NAD+ tightly bound to the purified protein on zebrafish Tgds

For assay [2], the target named is T2, zebrafish Tgds (Danio rerio, UniProt A0AC58JQE1).
T2 construct: full coding region (347 residues) from ovary cDNA, pET-28a NdeI/XhoI, N-terminal 6xHis tag (cutting not mentioned), E. coli BL21 DE
T2 sequence (A0AC58JQE1 1-347): T1 sequence (A0AC58JQE1 1-347 Y223H) with H223Y
The assay is described as above. The assay is classed as binding. As to conditions: co-purified, tightly bound cofactor; protein from calculated extinction coefficient at 280 nm.
Text: as §1

Assay [3] concerns the target T3, zebrafish Tgds (Danio rerio, UniProt A0AC58JQE1, A89S).
T3 construct: full coding region (347 residues) from ovary cDNA, pET-28a NdeI/XhoI, N-terminal 6xHis tag (cutting not mentioned), E. coli BL21 DE
T3 sequence (A0AC58JQE1 1-347 A89S): T1 sequence (A0AC58JQE1 1-347 Y223H) with A89S, H223Y
Described as above. As to conditions: co-purified, tightly bound cofactor; protein from calculated extinction coefficient at 280 nm. The assay is classed as binding.
Text: as §1

Assay [4] has as its target T4, zebrafish Tgds (Danio rerio, UniProt A0AC58JQE1, E79G).
T4 construct: full coding region (347 residues) from ovary cDNA, pET-28a NdeI/XhoI, N-terminal 6xHis tag (cutting not mentioned), E. coli BL21 DE
T4 sequence (A0AC58JQE1 1-347 E79G): T1 sequence (A0AC58JQE1 1-347 Y223H) with E79G, H223Y
The assay is described as above. It is filed as binding. The settings on record: co-purified, tightly bound cofactor; protein from calculated extinction coefficient at 280 nm.
Text: as §1

For assay [5], the target named is T2, zebrafish Tgds. In words: anion exchange HPLC. The assay is classed as biochemical. The settings on record: PBS pH 7.3, 30 °C.

Structures are written as SMILES. Where a chain is given by its changes, count along the chain named.

Consider `NC(=O)c1ccc[n+]([C@@H]2O[C@H](COP(=O)(O)OP(=O)(O)OC[C@H]3O[C@@H](n4cnc5c(N)ncnc54)[C@H](O)[C@@H]3O)[C@@H](O)[C@H]2O)c1` [NAD^+], for which the “NAD^+/protein molar ratio ^d” value was 0.04 mol/mol on zebrafish Tgds [1], 0.55 mol/mol at zebrafish Tgds [2], 0.39 mol/mol on zebrafish Tgds [3] and 0.16 mol/mol at zebrafish Tgds [4].
For the compound `Cc1cn([C@H]2C[C@H](O)[C@@H](COP(=O)(O)OP(=O)(O)O[C@H]3O[C@H](CO)[C@@H](O)[C@H](O)[C@H]3O)O2)c(=O)[nH]c1=O` [TDP‐D‐glucose], the “anion exchange HPLC” value on zebrafish Tgds [5] is on record as “The enzyme exhibited lower activity with TDP‐D‐glucose”.
